# Measurements: the CombiSolv-Exp solvation set (Vermeire and Green 2021)
# Experiment: solvent given as SMILES
compound,measurement,setting,value
ClC(Cl)=C(Cl)C(Cl)=C(Cl)Cl,"solvation free energy, 298 K",in O,-1.92 kJ/mol
COC(=O)c1ccc(Br)cc1,"solvation free energy, 298 K",in CN(C)C=O,-38.7 kJ/mol
same,"solvation free energy, 298 K",in O,-17.8 kJ/mol
CC(=O)N(C)C,"solvation free energy, 298 K",in C1CCCCC1,-20.8 kJ/mol
same,"solvation free energy, 298 K",in C=CCCCCCCC=C,-21.8 kJ/mol
same,"solvation free energy, 298 K",in CC(C)CC(C)(C)C,-21.7 kJ/mol
same,"solvation free energy, 298 K",in CCCCCCCCCCCCCCCC,-17.8 kJ/mol
same,"solvation free energy, 298 K",in O,-34.1 kJ/mol
same,"solvation free energy, 298 K",in [2H]O[2H],-32.6 kJ/mol
same,"solvation free energy, 298 K",in c1ccccc1,-26.8 kJ/mol
CCCc1ccc(O)cc1,"solvation free energy, 298 K",in O,-21.8 kJ/mol
CCCCCCCC(C)=O,"solvation free energy, 298 K",in NC=O,-22.7 kJ/mol
same,"solvation free energy, 298 K",in O,-10.5 kJ/mol
CCCCCCO,"solvation free energy, 298 K",in Brc1ccccc1,-25 kJ/mol
same,"solvation free energy, 298 K",in C1CCOC1,-31 kJ/mol
same,"solvation free energy, 298 K",in CC#N,-26.9 kJ/mol
same,"solvation free energy, 298 K",in CC(C)CC(C)(C)C,-21.3 kJ/mol
same,"solvation free energy, 298 K",in CC(C)O,-31.5 kJ/mol
same,"solvation free energy, 298 K",in CCC(C)=O,-29.1 kJ/mol
same,"solvation free energy, 298 K",in CCCCCC,-21 kJ/mol
same,"solvation free energy, 298 K",in CCCCCCC,-22 kJ/mol
same,"solvation free energy, 298 K",in CCCCCCCC,-20.9 kJ/mol
same,"solvation free energy, 298 K",in CCCCCCCCCC,-20.9 kJ/mol
same,"solvation free energy, 298 K",in CCCCCCCCCCCCCCCC,-20.5 kJ/mol
same,"solvation free energy, 298 K",in CCCCCCCCCCO,-29.2 kJ/mol
same,"solvation free energy, 298 K",in CCCCCCCCO,-29.5 kJ/mol
same,"solvation free energy, 298 K",in CCCCCl,-25.1 kJ/mol
same,"solvation free energy, 298 K",in CCCCOC(C)=O,-28.6 kJ/mol
same,"solvation free energy, 298 K",in CCCOCCC,-26.4 kJ/mol
same,"solvation free energy, 298 K",in Cc1ccccc1C,-24.7 kJ/mol
same,"solvation free energy, 298 K",in NC=O,-25.3 kJ/mol
same,"solvation free energy, 298 K",in O,-18.4 kJ/mol
same,"solvation free energy, 298 K",in [2H]O[2H],-19.1 kJ/mol
CC1(C)C2CC3C(C2)C31C,"solvation free energy, 298 K",in O,3.64 kJ/mol
CC(=O)OC1C2(C)CCC(C2)C1(C)C (stereo not given),"solvation free energy, 298 K",in O,-11.3 kJ/mol
O=c1[nH]cc(C(F)(F)F)c(=O)[nH]1,"solvation free energy, 298 K",in O,-64.7 kJ/mol
CCc1cccnc1,"solvation free energy, 298 K",in O,-19.2 kJ/mol
CC(C)CCOC(=O)c1ccccc1C(=O)OCCC(C)C,"solvation free energy, 298 K",in O,-28.8 kJ/mol
CC1=CCC(=C(C)C)CCC(C)=CCC1,"solvation free energy, 298 K",in O,-1.55 kJ/mol
Clc1cc2c(cc1Cl)Oc1cc(Cl)c(Cl)cc1O2,"solvation free energy, 298 K",in O,-14.1 kJ/mol
OCC(O)C(O)C(O)CO (stereo not given),"solvation free energy, 298 K",in CC(C)O,-56 kJ/mol
same,"solvation free energy, 298 K",in CCCCO,-55.5 kJ/mol
same,"solvation free energy, 298 K",in CCO,-57.8 kJ/mol
same,"solvation free energy, 298 K",in CN(C)C=O,-64.5 kJ/mol
same,"solvation free energy, 298 K",in O,-69.2 kJ/mol
CCCN(CCC)c1c([N+](=O)[O-])cc(C(F)(F)F)cc1[N+](=O)[O-],"solvation free energy, 298 K",in O,-13.6 kJ/mol
Nc1cnn(-c2ccccc2)c(=O)c1Cl,"solvation free energy, 298 K",in O,-68.7 kJ/mol
FC(F)(F)Cl,"solvation free energy, 298 K",in CCCCCCC,-2.51 kJ/mol
same,"solvation free energy, 298 K",in CCCCCCCC,-2.22 kJ/mol
same,"solvation free energy, 298 K",in CCCCCCCC(=O)OCC(COC(=O)CCCCCCC)OC(=O)CCCCCCC,-0.126 kJ/mol
same,"solvation free energy, 298 K",in CCCCCCCCC,-1.92 kJ/mol
same,"solvation free energy, 298 K",in CCCCCCCCO,-0.251 kJ/mol
same,"solvation free energy, 298 K",in CN1CCCC1=O,0.962 kJ/mol
same,"solvation free energy, 298 K",in CN(C)C=O,0.335 kJ/mol
same,"solvation free energy, 298 K",in ClC(Cl)(Cl)Cl,-2.51 kJ/mol
same,"solvation free energy, 298 K",in O,9.67 kJ/mol
C1=CCC=C1,"solvation free energy, 298 K",in Brc1cccc2ccccc12,-11.9 kJ/mol
same,"solvation free energy, 298 K",in CC(=O)OCc1ccccc1,-12.2 kJ/mol
same,"solvation free energy, 298 K",in CN1CCCC1=O,-13.9 kJ/mol
same,"solvation free energy, 298 K",in CN(C)C=O,-14.3 kJ/mol
same,"solvation free energy, 298 K",in O,-0.92 kJ/mol
same,"solvation free energy, 298 K",in c1ccc2ncccc2c1,-12 kJ/mol
CCCCCCCCCCCOC(=O)c1ccccc1C(=O)OCCCCCCCCCCC,"solvation free energy, 298 K",in O,-25.4 kJ/mol
C=CC=CC=C,"solvation free energy, 298 K",in C=CCCCCCCCCCCCCCC,-15.8 kJ/mol
same,"solvation free energy, 298 K",in O,0.837 kJ/mol
O=C(O)c1ccc(I)cc1,"solvation free energy, 298 K",in CN(C)C=O,-58.4 kJ/mol
same,"solvation free energy, 298 K",in O,-33.3 kJ/mol
CCCCCCCBr,"solvation free energy, 298 K",in O,1.42 kJ/mol
c1cc2cccc3c4cccc5cccc(c(c1)c23)c54,"solvation free energy, 298 K",in CCCCCCCCC=CCCCCCCCC(=O)OCC(COC(=O)CCCCCCCC=CCCCCCCCC)OC(=O)CCCCCCCC=CCCCCCCCC,-70.7 kJ/mol
same,"solvation free energy, 298 K",in O,-32.8 kJ/mol
CCC(CC)CC,"solvation free energy, 298 K",in C=CCCCCCCCCCCCCCC,-17 kJ/mol
same,"solvation free energy, 298 K",in CC#N,-12.6 kJ/mol
same,"solvation free energy, 298 K",in O,10.9 kJ/mol
Oc1cccc2ccccc12,"solvation free energy, 298 K",in CC(C)CC(C)(C)C,-35.7 kJ/mol
same,"solvation free energy, 298 K",in CCCCCC,-36.4 kJ/mol
same,"solvation free energy, 298 K",in CCCCCCC,-36.6 kJ/mol
same,"solvation free energy, 298 K",in CCCCCCCC,-36.5 kJ/mol
same,"solvation free energy, 298 K",in CCCCCCCCCC,-36.7 kJ/mol
same,"solvation free energy, 298 K",in O,-33.2 kJ/mol
CCCCCCCCCCCCCC(=O)OC,"solvation free energy, 298 K",in O,-4.77 kJ/mol
CC(C)Br,"solvation free energy, 298 K",in C=CCCCCCCCCCCCCCC,-13.8 kJ/mol
same,"solvation free energy, 298 K",in O,-2.01 kJ/mol
CCCC(C)CC (stereo not given),"solvation free energy, 298 K",in C=CCCCCCCCCCCCCCC,-16.8 kJ/mol
CNc1ccccc1,"solvation free energy, 298 K",in CCCCCCCCCCCCCCCC,-25.4 kJ/mol
same,"solvation free energy, 298 K",in O,-19.6 kJ/mol
NC(=O)c1ccccc1,"solvation free energy, 298 K",in O,-46.1 kJ/mol
Cl,"solvation free energy, 298 K",in C=CCCCCCCCCCCCCCC,-3.43 kJ/mol
same,"solvation free energy, 298 K",in ClC(Cl)(Cl)Cl,-3.6 kJ/mol
Cc1ccccc1O,"solvation free energy, 298 K",in CC(C)CC(C)(C)C,-23.8 kJ/mol
same,"solvation free energy, 298 K",in O,-24.5 kJ/mol
Cc1cccc(O)c1,"solvation free energy, 298 K",in CC(C)CCCC(C)CCCC(C)CCCCC(C)CCCC(C)CCCC(C)C,-24.2 kJ/mol
same,"solvation free energy, 298 K",in CCCCCC,-24.4 kJ/mol
same,"solvation free energy, 298 K",in CCCCCCCCCCCCCCCC,-24 kJ/mol
O=C(CC(=O)C(F)(F)F)c1cccs1,"solvation free energy, 298 K",in O,-25.7 kJ/mol
Oc1ccccc1I,"solvation free energy, 298 K",in O,-26 kJ/mol
